# According to US20040029823A1, “Antisense oligonucleotide compositions and methods for the modulation of JNK proteins” (priority 1997, published 2004):
# Strand notation (5' to 3'): a small letter for the sugar, then the base; units joined by * are phosphorothioate-linked, units joined directly phosphodiester-linked; [ ] holds rarer units or linkages, { } end groups; capitals alone tell only the bases. e = 2'-O-(2-methoxyethyl) (MOE); [5mC] = 5-methylcytosine; d = 2'-deoxy (DNA)
# Tests used:
# JNK1 mRNA = assay: Northern assay of JNK1 mRNA expression in A549 cells; type: cell-based, human; conditions: for Normalized % Control / RNA % Control / RNA % Inhibition: JNK1 mRNA; for Normalized % Control: chemically modified oligonucleotides; for RNA % Control / RNA % Inhibition: 300 nM for 20 hours then 200 nM for 4 hours
# Protocol: (§1) In order to evaluate the activity of potential JNK-modulating oligonucleotides, human lung carcinoma cell line A549 (American Type Culture Collection, Rockville, Md. No. ATCC CCL-185) cells or other cell lines as indicated in the Examples, were grown and treated with oligonucleotides or control solutions as detailed below. After harvesting, cellular extracts were prepared and examined for specific JNK mRNA levels or JNK protein levels (i.e., Northern or Western assays, respectively). In all cases, “% expression” refers to the amount of JNK-specific signal in an oligonucleotide-treated cell relative to an untreated cell (or a cell treated with a control solution that lacks oligonucleotide), and “% inhibition” is calculated as
# 100%−% Expression =% Inhibition.
# Northern Assays: The mRNA expression of each JNK protein was determined by using a nucleic acid probe specifically hybridizable thereto. Nucleic acid probes specific for JNK1, JNK2 and JNK3 are described in Examples 3, 4 and 5, respectively. The probes were radiolabelled by means well known in the art (see, e.g., Short Protocols in Molecular Biology, 2nd Ed., Ausubel et al., Eds., John Wiley & Sons, New York, 1992, pages 3-11 to 2-3-44 and 4-17 to 4-18; Ruth, Chapter 6 In: Methods in Molecular Biology, Vol. 26: Protocols for Oligonucleotide Conjugates, Agrawal, ed., Humana Press Inc., Totowa, N.J., 1994, pages 167-185; and Chapter 10 In: Molecular Cloning: A Laboratory Manual, 2nd Ed., Sambrook et al., Eds., pages 10.1-10.70). The blots were stripped and reprobed with a ^32P-labeled glyceraldehyde 3-phosphate dehydrogenase (G3PDH) probe (Clontech Laboratories, Inc., Palo Alto, Calif.) in order to confirm equal loading of RNA and to allow the levels of JNK transcripts to be normalized with regard to the G3PDH signals.
# A549 cells were grown in T-75 flasks until 80-90% confluent. At this time, the cells were washed twice with 10 mL of media (DMEM), followed by the addition of 5 mL of DMEM containing 20 μg/mL of LIPOFECTIN™ (i.e., 1:1 (w/w) DOTMA/DOPE, Life Technologies, Gaithersburg, Md.; DOTMA=N-[1-(2,3-dioleyoxy)propyl]-N,N,N-trimethylammonium chloride; DOPE=dioleoyl phosphatidylethanolamine). The oligonucleotides were added from a 10 μM stock solution to a final concentration of 400 nM, and the two solutions were mixed by swirling the flasks. As a control, cells were treated with LIPOFECTIN™ without oligonucleotide under the same conditions and for the same times as the oligonucleotide-treated samples. After 4 hours at 37° C., the medium was replaced with fresh DMEM containing 10% serum. The cells were allowed to recover for 18 hours. Total cellular RNA was then extracted in guanidinium, subject to gel electrophoresis and transferred to a filter according to techniques known in the art (see, e.g., Chapter 7 In: Molecular Cloning: A Laboratory Manual, 2nd Ed., Sambrook et al., Eds., pages 7.1-7.87, and Short Protocols in Molecular Biology, 2nd Ed., Ausubel et al., Eds., John Wiley & Sons, New York, 1992, pages 2-24 to 2-30 and 4-14 to 4-29). Filters were typically hybridized overnight to a probe specific for the particular JNK gene of interest in hybridization buffer (25 mM KPO4, pH 7.4; 5×SSC; 5× Denhardt's solution, 100 μg/ml Salmon sperm DNA and 50% formamide) (Alahari et al., Nucl. Acids Res., 1993, 21, 4079). This was followed by two washes with 1×SSC, 0.1% SDS and two washes with 0.25×SSC, 0.1% SDS. Hybridizing bands were visualized by exposure to X-OMAT AR film and quantitated using a PHOSPHORIMAGER™ essentially according to the manufacturer's instructions (Molecular Dynamics, Sunnyvale, Calif.)
# B. JNK1-specific probes: In initial screenings of a set of oligonucleotides derived from the JNK1 sequence (Table 2) for biological activity, a cDNA clone of JNK1 (Derijard et al., Cell, 1994, 76, 1025) was radiolabeled and used as a JNK1-specific probe in Northern blots. […]
# JNK1 protein = assay: Western assay of JNK1 protein levels in A549 cells; type: cell-based, human; conditions: 300 nM for 20 hours then 200 nM for 4 hours
# Protocol: as §1
# Western Assays: A549 cells were grown and treated with oligonucleotides as described above. Cells were lysed, and protein extracts were electrophoresed (SDS-PAGE) and transferred to nitrocellulose filters by means known in the art (see, e.g., Chapter 18 In: Molecular Cloning: A Laboratory Manual, 2nd Ed., Sambrook et al., Eds., pages 18.34, 18.47-18.54 and 18.60-18.75)). The amount of each JNK protein was determined by using a primary antibody that specifically recognizes the appropriate JNK protein. The primary antibodies specific for each JNK protein are described in the appropriate Examples. The primary antibodies were detected by means well known in the art (see, e.g., Short Protocols in Molecular Biology, 2nd Ed., Ausubel et al., Eds., John Wiley & Sons, New York, 1992, pages 10-33 to 10-35; and Chapter 18 In: Molecular Cloning: A Laboratory Manual, 2nd Ed., Sambrook et al., Eds., pages 18.1-18.75 and 18.86-18.88) and quantitated using a PHOSPHORIMAGER™ essentially according to the manufacturer's instructions (Molecular Dynamics, Sunnyvale, Calif.).
# F. Western Assays: In order to assess the effect of oligonucleotides targeted to JNK1 mRNAs on JNK1 protein levels, Western assays were performed essentially as described above in Example 2, with the following exception(s) and/or modification(s). A primary antibody that specifically binds to JNK1 (catalog No. sc-474-G) was purchased from Santa Cruz Biotechnology, Inc. (Santa Cruz, Calif.; other JNK1-specific antibodies are available from StressGen Biotechnologies, Inc., Victoria, BC, Canada; and Research Diagnostics, Inc., Flanders, N.J.). In this experiment, cells were grown and treated with oligonucleotide at 300 nM for the initial 20 hours and then at 200 nM for 4 hours. At t=48 h, aliquots were removed for Northern and Western analyses, and fresh media was added to the cells. Aliquots for analysis were also taken at t=72 h. The samples from t=48 h and t=72 h were analyzed using the Northern and Western assays described above.
Substance,Normalized % Control (JNK1 mRNA; dose 100 nM) [%],Normalized % Control (JNK1 mRNA; dose 400 nM) [%],RNA % Control (JNK1 mRNA; t = 48 h) [%],RNA % Inhibition (JNK1 mRNA; t = 48 h) [%],RNA % Control (JNK1 mRNA; t = 72 h) [%],RNA % Inhibition (JNK1 mRNA; t = 72 h),"inhibition of JNK1 mRNA expression (JNK1 mRNA; chemically modified derivatives of ISIS 12539, 400 nM (Table 5))",Protein % Control (JNK1 protein; t = 48 h) [%],Protein % Control (JNK1 protein; t = 72 h) [%],Protein % Inhibition (JNK1 protein; t = 48 h),Protein % Inhibition (JNK1 protein; t = 72 h) [%]
"15347 (antisense CTCTCTGTAGGCCCGCTTGG; sugars from the 5' end e5 d9 e6, [5mC] at 1, 3, 5, 16, linkages o4 s10 o5 (s phosphorothioate, o phosphodiester), methylation of C not given here) [compound 15347]",27.1,11.7,7.9,92.1,8.2,81.8%,at least 88%,38.8,28.4,,
15345 (antisense e[5mC]*eT*e[5mC]*eT*e[5mC]*eT*eG*eT*eA*eG*eG*e[5mC]*e[5mC]*e[5mC]*eG*e[5mC]*eT*eT*eG*eG) [compound 15345],95.4,89.1,70.3,,187.4,(0.0) %,,105.0,87.8,(0.0) %,12.2
"15349 (antisense CTCTCTGTAGGCCCGCTTGG; sugars from the 5' end d9 e11, [5mC] at 12, 13, 14, 16, all phosphorothioate, methylation of C not given here) [compound 15349]",42.5,35.5,63.1,36.9,52.0,48.0%,,69.5,56.5,30.5%,43.5
"15350 (antisense CTCTCTGTAGGCCCGCTTGG; sugars from the 5' end d9 e11, [5mC] at 12, 13, 14, 16, linkages s9 o10 (s phosphorothioate, o phosphodiester), methylation of C not given here) [compound 15350]",71.1,41.3,49.2,50.0,54.4,45.6%,,71.7,58.4,28.3%,41.6
